Source: PubChem BioAssay AID248 (DTP/NCI, 2004)
Several values for one entry are separate records, joined by “and”; a condition that tells them apart may be missing. Equal entries are not always repeated. Inconclusive results and toxic doses are left out.

System: L1210 leukemia ip in BDF1 mice, survival T/C
Test: NCI In Vivo Anticancer Drug Screen. Data for tumor model L1210 Leukemia (intraperitoneal) in B6D2F1 (BDF1) mice
Conditions: higher = longer survival
How it was run: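 Tumor cells were implanted, animals were treated, and survival was followed. The result divides the treated measurement by the vehicle-control measurement.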

## CCCCN(C)/N=N/c1nc[nH]c1C(N)=O
endpoint: mean survival time, dose: 4.0 mg/kg/injection, schedule: Q01DX009 (ip), vehicle: other
  T/C: 111 % of control
endpoint: mean survival time, dose: 7.0 mg/kg/injection, schedule: Q01DX009 (ip), vehicle: other
  T/C: 111 % of control
endpoint: mean survival time, dose: 12.25 mg/kg/injection, schedule: Q01DX009 (ip), vehicle: saline with Tween-80
  T/C: 117 % of control
endpoint: mean survival time, dose: 17.6 mg/kg/injection, schedule: Q01DX009 (ip), vehicle: carboxymethylcellulose (CMC)
  T/C: 109 % of control
endpoint: mean survival time, dose: 20.0 mg/kg/injection, schedule: Q01DX Z (ip), vehicle: carboxymethylcellulose (CMC)
  T/C: 124 % of control
endpoint: mean survival time, dose: 26.0 mg/kg/injection, schedule: Q01DX009 (ip), vehicle: carboxymethylcellulose (CMC)
  T/C: 120 % of control
endpoint: mean survival time, dose: 36.0 mg/kg/injection, schedule: Q01DX009 (ip), vehicle: other
  T/C: 168 % of control
endpoint: mean survival time, dose: 36.7 mg/kg/injection, schedule: Q04DX003 (ip), vehicle: saline with Tween-80
  T/C: 117 % of control
endpoint: mean survival time, dose: 40.0 mg/kg/injection, schedule: Q01DX009 (ip), vehicle: carboxymethylcellulose (CMC)
  T/C: 124 % of control
endpoint: mean survival time, dose: 40.0 mg/kg/injection, schedule: Q01DX Z (ip), vehicle: carboxymethylcellulose (CMC)
  T/C: 164 % of control
endpoint: mean survival time, dose: 49.0 mg/kg/injection, schedule: Q01DX009 (ip), vehicle: saline with Tween-80
  T/C: 153 % of control
endpoint: mean survival time, dose: 53.0 mg/kg/injection, schedule: Q01DX001 (ip), vehicle: saline with Tween-80
  T/C: 107 % of control
endpoint: mean survival time, dose: 60.0 mg/kg/injection, schedule: Q01DX009 (ip), vehicle: other
  T/C: 154 % of control
endpoint: mean survival time, dose: 73.5 mg/kg/injection, schedule: Q04DX003 (ip), vehicle: saline with Tween-80
  T/C: 122 % of control
endpoint: mean survival time, dose: 80.0 mg/kg/injection, schedule: Q01DX Z (ip), vehicle: carboxymethylcellulose (CMC)
  T/C: 158 % of control
endpoint: mean survival time, dose: 88.0 mg/kg/injection, schedule: Q01DX001 (ip), vehicle: carboxymethylcellulose (CMC)
  T/C: 103 % of control
endpoint: mean survival time, dose: 88.0 mg/kg/injection, schedule: Q01DX001 (ip), vehicle: other
  T/C: 121 % of control
endpoint: mean survival time, dose: 100.0 mg/kg/injection, schedule: Q01DX001 (ip), vehicle: other
  T/C: 119 % of control
endpoint: mean survival time, dose: 100.0 mg/kg/injection, schedule: Q01DX009 (ip), vehicle: other
  T/C: 90 % of control
endpoint: mean survival time, dose: 106.0 mg/kg/injection, schedule: Q01DX001 (ip), vehicle: saline with Tween-80
  T/C: 119 % of control
endpoint: mean survival time, dose: 120.0 mg/kg/injection, schedule: Q01DX Z (ip), vehicle: carboxymethylcellulose (CMC)
  T/C: 101 % of control
endpoint: mean survival time, dose: 133.0 mg/kg/injection, schedule: Q01DX001 (ip), vehicle: carboxymethylcellulose (CMC)
  T/C: 103 % of control
endpoint: mean survival time, dose: 147.0 mg/kg/injection, schedule: Q04DX003 (ip), vehicle: saline with Tween-80
  T/C: 153 % of control
endpoint: mean survival time, dose: 160.0 mg/kg/injection, schedule: Q01DX009 (ip), vehicle: carboxymethylcellulose (CMC)
  T/C: 98 % of control
endpoint: mean survival time, dose: 200.0 mg/kg/injection, schedule: Q01DX001 (ip), vehicle: carboxymethylcellulose (CMC)
  T/C: 106 % of control
endpoint: mean survival time, dose: 400.0 mg/kg/injection, schedule: Q01DX001 (ip), vehicle: other
  T/C: 122 % of control
endpoint: median survival time, dose: 10.0 mg/kg/injection, schedule: Q01DX009 (ip), vehicle: steriod suspending solution
  T/C: 116 % of control
endpoint: median survival time, dose: 20.0 mg/kg/injection, schedule: Q01DX009 (ip), vehicle: steriod suspending solution
  T/C: 122 % of control
endpoint: median survival time, dose: 40.0 mg/kg/injection, schedule: Q01DX009 (ip), vehicle: steriod suspending solution
  T/C: 150 % of control and 155 % of control
endpoint: median survival time, dose: 80.0 mg/kg/injection, schedule: Q01DX009 (ip), vehicle: steriod suspending solution
  T/C: 155 % of control and 166 % of control
endpoint: median survival time, dose: 160.0 mg/kg/injection, schedule: Q01DX009 (ip), vehicle: steriod suspending solution
  T/C: 100 % of control

## N#Cc1ccc[n+](CCc2c[nH]c3ccccc23)c1
endpoint: mean survival time, dose: 75.0 mg/kg/injection, schedule: Q01DX001 (ip), vehicle: saline
  T/C: 102 % of control

## Cc1nc(-c2ccccc2)nc2c1CCO2
endpoint: mean survival time, dose: 100.0 mg/kg/injection, schedule: Q01DX009 (ip), vehicle: saline with Tween-80
  T/C: 100 % of control
endpoint: mean survival time, dose: 200.0 mg/kg/injection, schedule: Q01DX009 (ip), vehicle: saline with Tween-80
  T/C: 107 % of control
